Source: publication PMC11089505, “Structural Elucidation and Antiviral Activity of Covalent Cathepsin L Inhibitors” (Journal of Medicinal Chemistry, 2024)
Values joined by “and” are separate entries in the source; they are usually repeats but may differ in a detail not shown here. Equal entries are not always repeated. Where two headings read alike, the source gives them in different places. Square brackets hold non-standard residues; d marks the D form. Peptide text beside a SMILES is read from it. Nle = CCCC[C@H](N)C(=O)O

How the values were obtained:
CatL [1] = settings: cited from earlier work
in vitro = settings: African green monkey
CatL [2] = molecular target: T1, CatL (Homo sapiens, UniProt P07711, T223A); experiment: NanoDSF, thermal stability of CatL; type: binding; settings: for 2:1, Tm average (CatL): 2:1 compound to protein; for 20:1, Tm average (CatL): 20:1 compound to protein
T1 construct: made in house; host or cells: Komagataella pastoris strain GS115
T1 sequence (P07711 114-333 T223A): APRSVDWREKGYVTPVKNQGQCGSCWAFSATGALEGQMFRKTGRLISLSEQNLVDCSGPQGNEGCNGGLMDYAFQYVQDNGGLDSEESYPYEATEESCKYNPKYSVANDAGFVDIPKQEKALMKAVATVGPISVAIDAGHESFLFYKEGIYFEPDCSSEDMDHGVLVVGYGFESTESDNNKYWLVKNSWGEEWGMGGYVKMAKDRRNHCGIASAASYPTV

SARS-CoV-2 Mpro = SARS-CoV-2 Mpro (Severe acute respiratory syndrome coronavirus 2, UniProt P0DTD1); type: binding; settings: for 2:1, Tm average (Mpro): 2:1 compound to protein
CatL [3] = molecular target: T1, CatL; experiment: CatL inactivation assay comparing epoxides at pH 6 and pH 4; type: biochemical
Experimental: (§1) Experiments were performed in a solution of 50 mM sodium acetate, pH 4.0, 50 mM NaCl, 0.1% PEG 6000, and 5 mM DTT. Distinct assays with epoxide inhibitors at pH 6.0 were performed in 50 mM sodium phosphate buffer, 50 mM NaCl, 5 mM DTT, 0.1% PEG 6000, adjusted to pH 6.0.
(§2) M1000 pro plate reader (Tecan), the fluorescent peptide substrate Z-RR-AMC, and excitation and emission wavelengths of 370 and 460 nm, respectively.
(§3) At first, the inhibitor concentration span was optimized for each inhibitor and the assay buffer. For this initial screening, CatL (5 nM) was mixed with different concentrations of inhibitors (1 nM–50 μM) to determine the range of their inhibition. […] Reaction data were fitted to the […] in GraphPad Prism 9 software: Y = bottom + (top – bottom)/(1 + 10^∧((log IC50 – X) × HillSlope)); X is the log of dose or concentration, Y is the response (fluorescence signal), decreasing as X increases, top and bottom are the plateaus in the same units as Y, log IC50 same log units as X, HillSlope is the slope factor or called the Hill slope.
Figure S7. Inactivation of CatL.
(1 picture or pasted object on this page, not shown here)

[4] = tested on: SARS-CoV-2-GFP in Vero E6 cells; experiment: microbe, parasite or virus in culture; type: cell-based
CatL [5] = molecular target: T1, CatL; experiment: CatL inhibition assay (Ki), substrate Z-RR-AMC; type: biochemical
Experimental: as §1, §2, §3

[6] = read-out: Ki of CatL inhibition

CCCC[C@@H](C=O)NC(=O)[C@H](CC(C)C)NC(=O)OCc1ccccc1 [Calpeptin]
Ki (CatL [1]; [6]): 0.13 nM | viability at 48 h, 1e-05 µM (in vitro): 100% | viability at 48 h, 0.0001 µM (in vitro): 98.4% | viability at 48 h, 0.001 µM (in vitro): 99.3% | viability at 48 h, 0.01 µM (in vitro): 97.9% | viability at 48 h, 0.1 µM (in vitro): 101% | viability at 48 h, 1 µM (in vitro): 101% | viability at 48 h, 10 µM (in vitro): 105% | 2:1, Tm average (CatL) (CatL [2]): 81.8 °C | 20:1, Tm average (CatL) (CatL [2]): 82 °C

CC(C)C[C@H](NC(=O)[C@H]1O[C@@H]1C(=O)O)C(=O)NCCCCN=C(N)N [E-64, 3-[[[(1S)-1-[[[4-[(Aminoiminomethyl)amino]butyl]amino]carbonyl]-3-methylbutyl]amino]carbonyl]-(2S.3S)-oxiranecarboxylic acid]
ΔTm (for Mpro), 2:1 compound to protein mixing ratio (SARS-CoV-2 Mpro; 8 µM Mpro, pH 7.5, 2% DMSO, 2:1): -1,0 ± 0,2 °C and -1 °C | 2:1, Tm average (Mpro) (SARS-CoV-2 Mpro): 54.4 °C | Inactivation Rate (CatL [3]; E-64, pH 4, 19.76 nM): 0.0008123 per second and 0.00102 per second | Inactivation Rate (CatL [3]; E-64, pH 4, 29.64 nM): 0.001302 per second and 0.001598 per second | Inactivation Rate (CatL [3]; E-64, pH 4, 44.45 nM): 0.002006 per second and 0.002388 per second | Inactivation Rate (CatL [3]; E-64, pH 4, 66.68 nM): 0.003192 per second and 0.003338 per second | Inactivation Rate (CatL [3]; E-64, pH 4, 100.01 nM): 0.004626 per second and 0.004922 per second | Inactivation Rate (CatL [3]; E-64, pH 4, 225.00 nM): 0.01185 per second and 0.01036 per second | Inactivation Rate (CatL [3]; E-64, pH 6, 19.76 nM): 0.0005258 per second and 0.000578 per second | Inactivation Rate (CatL [3]; E-64, pH 6, 29.64 nM): 0.0007668 per second and 0.0008131 per second | Inactivation Rate (CatL [3]; E-64, pH 6, 44.45 nM): 0.001154 per second and 0.001247 per second | Inactivation Rate (CatL [3]; E-64, pH 6, 66.68 nM): 0.001742 per second and 0.001837 per second | Inactivation Rate (CatL [3]; E-64, pH 6, 100.01 nM): 0.002659 per second and 0.002717 per second | Inactivation Rate (CatL [3]; E-64, pH 6, 225.00 nM): 0.006042 per second and 0.006005 per second | ΔTm [K] for CatL, 2:1 ratio (CatL [2]): 4.1 ± 0.4 K | 2:1, Tm average (CatL) (CatL [2]): 67.2 °C | 20:1, Tm average (CatL) (CatL [2]): 76.9 °C | ΔTm (for CatL), 2:1 compound to protein mixing ratio (CatL [2]; pH 5): 4,1 ± 0,4 °C and 4.1 °C | ΔTm (for CatL), 20:1 compound to protein mixing ratio (CatL [2]; pH 5): 13,8 ± 0,1 °C and 13.8 °C

CC(C)C[C@H](NC(=O)OCc1ccccc1)C(=O)N[C@@H](CC1CCNC1=O)C(O)S(=O)(=O)O (some centres unmarked) [GC-376]
Ki (CatL [1]; [6]): 0.26 nM

CCCC[C@@H](C=O)NC(=O)[C@H](CC(C)C)NC(=O)[C@H](CC(C)C)NC(C)=O [MG101] (Ac-Leu-Leu-[Nle]-aldehyde)
viability at 48 h, 1e-05 µM (in vitro): 103% | viability at 48 h, 0.0001 µM (in vitro): 102% | viability at 48 h, 0.001 µM (in vitro): 102% | viability at 48 h, 0.01 µM (in vitro): 102% | viability at 48 h, 0.1 µM (in vitro): 102% | viability at 48 h, 1 µM (in vitro): 101% | viability at 48 h, 10 µM (in vitro): 63%

CCCC[C@@H](C=O)NC(=O)[C@H](CC(C)C)NC(=O)[C@H](CC(C)C)NC(C)=O [MG-101, Acetyl-Leu-Leu-Nle-aldehyde] (Ac-Leu-Leu-[Nle]-aldehyde)
EC50 ([4]; Severe acute respiratory syndrome coronavirus 2, Vero C1008, 24 h, read-out: EC50 (after 24 h)): 4.39 nM | EC50 ([4]; Severe acute respiratory syndrome coronavirus 2, Vero C1008, 48 h, read-out: EC50 (48 h)): < 500 nM | EC50 ([4]; Severe acute respiratory syndrome coronavirus 2, Vero C1008, 48 h, read-out: EC50 (after 48 h)): 198 nM | Ki (CatL [5]; read-out: Ki): 0.064 nM and 0.0645 nM | remaining activity at 69 pM (CatL [5]; read-out: Residual activity (Vi/V0), MG-101 0.069 nM): 91.8% | remaining activity at 99 pM (CatL [5]; read-out: Residual activity (Vi/V0), MG-101 0.099 nM): 86.4% | remaining activity at 0.000141 µM (CatL [5]; read-out: Residual activity (Vi/V0), MG-101 0.141 nM): 80.3% | remaining activity at 0.000202 µM (CatL [5]; read-out: Residual activity (Vi/V0), MG-101 0.202 nM): 78.5% | remaining activity at 0.000288 µM (CatL [5]; read-out: Residual activity (Vi/V0), MG-101 0.288 nM): 70.1% | remaining activity at 0.000412 µM (CatL [5]; read-out: Residual activity (Vi/V0), MG-101 0.412 nM): 58.3% | remaining activity at 0.000588 µM (CatL [5]; read-out: Residual activity (Vi/V0), MG-101 0.588 nM): 43.3% | 2:1, Tm average (Mpro) (SARS-CoV-2 Mpro): 60.4 °C | Ki (CatL [1]; read-out: Ki): 0.5 nM
